The text below walks through data of patent US8173638B2 (Boehringer Ingelheim International GmbH, priority 2006, dated 2012).

Each structure is given as a SMILES string. Read-outs that look alike come from different tables or passages of the source.

In this assay the target is T1, human CB2R (Homo sapiens, UniProt P34972).
T1 construct: host or cells: CHO cells
The assay can be described thus: CB2R mediated modulation of cAMP synthesis. Format: cell-based. Particulars: for Emax: 0.5 h, read-out: Agonist Efficacy (%). In a few lines: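 Forskolin (10 uM)-driven cAMP in human CB2R-expressing CHO cells, read with DiscoverX-XS kit after 30 min compound exposure at 37 °C, 1 mM IBMX, 0.25% BSA. 100% defined as forskolin cAMP relative to 1 uM CP55940 inhibition. Agonist EC50 via four-parameter logistic model.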

The mark [1] stands for this setting: CHO cells expressing human CB2R, cAMP inhibited by 1 uM CP55940 defined as 100%.

T1 sequence (P34972 whole entry): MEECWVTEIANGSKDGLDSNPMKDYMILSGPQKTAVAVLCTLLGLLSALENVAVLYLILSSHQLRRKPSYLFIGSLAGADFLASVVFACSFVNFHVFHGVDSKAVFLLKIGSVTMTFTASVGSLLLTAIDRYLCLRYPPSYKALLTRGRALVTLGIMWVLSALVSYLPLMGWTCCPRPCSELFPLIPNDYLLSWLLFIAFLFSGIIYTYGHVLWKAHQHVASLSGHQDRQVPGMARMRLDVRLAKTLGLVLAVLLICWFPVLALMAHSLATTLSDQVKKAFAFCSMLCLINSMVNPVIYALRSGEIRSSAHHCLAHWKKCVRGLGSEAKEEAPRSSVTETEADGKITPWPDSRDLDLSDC

In turn, `CC(C)(C)c1cc(NC(=O)N2CCCN(C(=O)C3CCC(F)(F)CC3)CC2)no1` [Compound 144, 4-(4,4-Difluoro-cyclohexanecarbonyl)-[1,4]diazepane-1-carboxylic acid (5-tert-butyl-isoxazol-3-yl)-amide] came in with an EC50 of 1.3 nM. Besides, for the setting “CHO”, the Emax was 98%.
Regarding `CC(C)(C)c1cc(NC(=O)N2CCCN(C(=O)C3CCCCCC3)CC2)no1` [Compound 152, 4-Cycloheptanecarbonyl-[1,4]diazepane-1-carboxylic acid (5-tert-butyl-isoxazol-3-yl)-amide], the Emax under setting [1] turned out to be 104%. Besides, where the note is “read-out: hCB2 cAMP EC50”, the EC50 came out at 19 nM.
On to `CC(C)(C)c1cc(NC(=O)N2CCCN(C(=O)C3CCCCC3)CC2)no1` [Compound 153, 4-Cyclohexanecarbonyl-[1,4]diazepane-1-carboxylic acid (5-tert-butyl-isoxazol-3-yl)-amide], for which the Emax under setting [1] came out at 104%. In addition, the EC50 (read-out: hCB2 cAMP EC50) was found to be 3.7 nM.
`CC(C)(C)c1cc(NC(=O)N2CCCN(C(=O)c3ccc(C(F)(F)F)cc3)CC2)no1` [Compound 154, 4-(4-Trifluoromethyl-benzoyl)-[1,4]diazepane-1-carboxylic acid (5-tert-butyl-isoxazol-3-yl)-amide] gave an EC50 of 1.5 nM. Moreover, the Emax (CHO) stood at 103%.
In the case of `COC1CCC(C(=O)N2CCCN(C(=O)Nc3cc(C(C)(C)C)on3)CC2)CC1` (centres unmarked) [Compound 155, 4-(4-Methoxy-cyclohexanecarbonyl)-[1,4]diazepane-1-carboxylic acid (5-tert-butyl-isoxazol-3-yl)-amide], the Emax (CHO) is 101%. Also, the EC50 (read-out: hCB2 cAMP EC50) was 110 nM.
As for `CC(=O)NC1CCC(C(=O)N2CCCN(C(=O)Nc3cc(C(C)(C)C)on3)CC2)CC1` (centres unmarked) [Compound 160, 4-(4-Acetylamino-cyclohexanecarbonyl)-[1,4]diazepane-1-carboxylic acid (5-tert-butyl-isoxazol-3-yl)-amide], under setting [1], the Emax was found to be 107%. Further, the EC50 (read-out: hCB2 cAMP EC50) is 68 nM.
The corresponding values for `O=C(Nc1nc(C2CC2)cs1)N1CCCN(C(=O)c2ccc(Cl)cc2)CC1` [Compound 166, 4-(4-Chloro-benzoyl)-[1,4]diazepane-1-carboxylic acid (4-cyclopropyl-thiazol-2-yl)-amide] are 91% and 90 nM.
With `O=C(Nc1nc(-c2ccccc2)cs1)N1CCCN(C(=O)c2ccc(Cl)cc2)CC1` [Compound 167, 4-(4-Chloro-benzoyl)-[1,4]diazepane-1-carboxylic acid (4-phenyl-thiazol-2-yl)-amide], the Emax under setting [1] came to 102%. Moreover, for the setting “read-out: hCB2 cAMP EC50”, the EC50 was 26 nM.
On to `O=C(Nc1nc2c(s1)CCCC2)N1CCCN(C(=O)c2ccc(Cl)cc2)CC1` [Compound 168, 4-(4-Chloro-benzoyl)-[1,4]diazepane-1-carboxylic acid (4,5,6,7-tetrahydro-benzothiazol-2-yl)-amide], for which the Emax under setting [1] turned out to be 101%. The EC50 (read-out: hCB2 cAMP EC50) turned out to be 3.6 nM.
With `Cc1nc(NC(=O)N2CCCN(C(=O)C3CCC(F)(F)CC3)CC2)sc1C(C)(C)C` [Compound 169, 4-(4,4-Difluoro-cyclohexanecarbonyl)-[1,4]diazepane-1-carboxylic acid (5-tert-butyl-4-methyl-thiazol-2-yl)-amide], under setting [1], the Emax is 95%. The EC50 (read-out: hCB2 cAMP EC50) was 0.7 nM.
Take `CC(C)(C)c1cnc(NC(=O)N2CCCN(C(=O)C3CCC(O)CC3)CC2)s1` (centres unmarked) [Compound 173, 4-(4-Hydroxy-cyclohexanecarbonyl)-[1,4]diazepane-1-carboxylic acid (5-tert-butyl-thiazol-2-yl)-amide]: the Emax under setting [1] was 111%. For the same compound, the EC50 (read-out: hCB2 cAMP EC50) came out at 17 nM.
`O=C(Nc1nc(-c2ccccc2)cs1)N1CCCN(C(=O)C2CCC(O)CC2)CC1` (centres unmarked) [Compound 174, 4-(4-Hydroxy-cyclohexanecarbonyl)-[1,4]diazepane-1-carboxylic acid (4-phenyl-thiazol-2-yl)-amide] came in with an EC50 of 43 nM. Moreover, the Emax (CHO) was found to be 102%.
For `Cc1nc(NC(=O)N2CCCN(C(=O)C3CCOCC3)CC2)sc1C(C)(C)C` [Compound 183, 4-(Tetrahydro-pyran-4-carbonyl)-[1,4]diazepane-1-carboxylic acid (5-tert-butyl-4-methyl-thiazol-2-yl)-amide], the Emax under setting [1] is 100%. Moreover, the EC50 (read-out: hCB2 cAMP EC50) was determined as 18 nM.
On to `Cc1sc(NC(=O)N2CCCN(C(=O)C3CCOCC3)CC2)nc1C(C)(C)C` [Compound 186, 4-(Tetrahydro-pyran-4-carbonyl)-[1,4]diazepane-1-carboxylic acid (4-tert-butyl-5-methyl-thiazol-2-yl)-amide], for which the Emax under setting [1] was 91%. Further, where the note is “read-out: hCB2 cAMP EC50”, the EC50 was 58 nM.
Regarding `CCC(C)c1cc(NC(=O)N2CCCN(C(=O)C3CCOCC3)CC2)on1` (centres unmarked) [Compound 193, 4-(Tetrahydro-pyran-4-carbonyl)-[1,4]diazepane-1-carboxylic acid (3-sec-butyl-isoxazol-5-yl)-amide], the response was half-maximal at 41 nM (EC50). Besides, the Emax (CHO) turned out to be 106%.
For `CCC(C)c1ccc(NC(=O)N2CCCN(C(=O)C3CCOCC3)CC2)nc1` (centres unmarked) [Compound 196, 4-(Tetrahydro-pyran-4-carbonyl)-[1,4]diazepane-1-carboxylic acid (5-sec-butyl-pyridin-2-yl)-amide], the Emax under setting [1] came to 77%. For the same compound, where the note is “read-out: hCB2 cAMP EC50”, the EC50 was found to be 47 nM.
In turn, `CC(C)(C)c1cc(NC(=O)N2CCCN(C(=O)N3CCCCC3)CC2)no1` [Compound 198, 4-(Piperidine-1-carbonyl)-[1,4]diazepane-1-carboxylic acid (5-tert-butyl-isoxazol-3-yl)-amide] had an EC50 of 47 nM. In addition, the Emax (CHO) was determined as 99%.
Take `CC(C)(C)c1cc(NC(=O)N2CCCN(C(=O)N3CCSCC3)CC2)no1` [Compound 203, 4-(Thiomorpholine-4-carbonyl)-[1,4]diazepane-1-carboxylic acid (5-tert-butyl-isoxazol-3-yl)-amide]: the Emax under setting [1] was 107%. Under “read-out: hCB2 cAMP EC50”, the EC50 is 62 nM.
For the compound `CC(C)(C)c1cc(NC(=O)N2CCCN(C(=O)N3CCC(F)(F)CC3)CC2)no1` [Compound 206, 4-(4,4-Difluoro-piperidine-1-carbonyl)-[1,4]diazepane-1-carboxylic acid (5-tert-butyl-isoxazol-3-yl)-amide], the midpoint of the response, the EC50, lay at 16 nM. For the same compound, for the setting “CHO”, the Emax was 105%.
Take `CC(C)(C)c1cc(NC(=O)N2CCCN(C(=O)N3CCS(=O)(=O)CC3)CC2)on1` [Compound 211, 4-(1,1-Dioxo-1 λ^6-thiomorpholine-4-carbonyl)-[1,4]diazepane-1-carboxylic acid (3-tert-butyl-isoxazol-5-yl)-amide]: the Emax under setting [1] came to 100%. Also, the EC50 (read-out: hCB2 cAMP EC50) is 95 nM.
As for `CC(C)(C)c1cc(NC(=O)N2CCCN(C(=O)NC3CCCCC3)CC2)no1` [Compound 212, [1,4]Diazepane-1,4-dicarboxylic acid 1-[(5-tert-butyl-isoxazol-3-yl)-amide] 4-cyclohexylamide], the EC50 amounted to 70 nM. The Emax (CHO) stood at 102%.
Turning to `CC(C)(C)c1cnc(NC(=O)N2CCCN(C(=O)N3CCS(=O)(=O)CC3)CC2)s1` [Compound 214, 4-(1,1-Dioxo-1 λ^6-thiomorpholine-4-carbonyl)-[1,4]diazepane-1-carboxylic acid (5-tert-butyl-thiazol-2-yl)-amide], under setting [1], the Emax is 95%. In addition, the concentration for a half-maximal effect (EC50) (read-out: hCB2 cAMP EC50) came to 20 nM.

As a reminder, the EC50 is the concentration that produces a half-maximal response.
